Results published in PMC4929566, “The metabolome of [2-^14C](−)-epicatechin in humans: implications for the assessment of efficacy, safety, and mechanisms of action of polyphenolic bioactives” (Scientific Reports, 2016).
Like-named read-outs stand apart in the source and are kept apart here.

Assays:
[1] = Metabolite profiling and pharmacokinetics in plasma (targeted HPLC-MS2); type: in vivo, humans; details: for AUC0-24h / Cmax / T1/2 (elimination half-life) / Tmax / AUC(0-t) / half-life: human plasma, oral 60 mg 14C-EC, mean ± SEM n=8; for AUC(0-t): read-out: AUC0-24h; for half-life: read-out: T1/2 (elimination half-life) (converted); for Identification as human EC metabolite: human plasma and urine, radiolabeled tracer
Procedure: (§1) The study was a single-center, open-label, and non-randomized study with two distinct elements: a run-in phase to establish a more defined dietary background of dietary flavanols and procyanidins and the subsequent ^14C-EC ADME study (Fig. 1B). Participants (n = 12) were enrolled in the run-in phase (day –17 to day –4) and asked to supplement their daily diet for 14 days with a commercially available flavanol-containing cocoa-based drink (250 mg cocoa flavanols; 40 mg of EC). This was followed by a 4-day period (day –4 to 0) of a low-flavanol diet. One day (study day -1) prior to the initialization of the ^14C-EC ADME study, all eligible participants were accommodated under controlled conditions at a metabolic research facility (Covance Clinical Pharmacology Inc., Wisconsin) until completion of the study. Based on the compliance of the first part of the study, 8 participants were selected to participate in the ^14C-EC ADME study. During the ^14C-EC ADME study (Fig. 1B.), volunteers received a low-flavanol, standardized high-fiber diet, and were encouraged to maintain an adequate level of hydration (water ad libitum). Volunteers were asked to fast for 8 h before the initiation of the study and for at least 4 h after the intake of the ^14C-EC test drink (water ad libitum). Venous blood samples were taken using Vacutainer collection tubes, containing potassium EDTA at 0 h (just prior to ^14C-EC ingestion), and at 0.25, 0.5, 1, 1.5, 2, 2.5, 3, 4, 6, 8, 10, 12, 16, 24, 36, and 48 h after test drink consumption. Plasma was obtained by whole blood centrifugation at 2000 × g for 15 min at 5 °C, separated into aliquots and stored at −80 °C until analysis. All urine and feces from the time just prior to the consumption of the test drink were collected at different time intervals for radioactivity and metabolite profiling. Clinical parameters and laboratory evaluations of participants were assessed at screening, on study day –1, and after completing the study, as detailed in Supplementary Methods.
(§2) Samples were processed as described previously[18] and analyzed by HPLC-MS^2 in conjunction with an on-line HPLC-radioactivity monitor as described in SI Materials and Methods. Identification of metabolites involved comparing the retention time with authentic standards and MS^2 fragmentation patterns (Supplementary Methods). Quantification of metabolites in urine was based on HPLC radioactivity peak area (limit of quantification: 10^3 dpm). Due to the low levels of radioactivity, quantification in plasma was based on targeted HPLC-MS^2 using standard curves obtained with authentic standards (Supplementary Methods).
Data are expressed as mean values ± standard error, or as otherwise specified. Pharmacokinetic parameters were calculated using non-compartmental analysis with WinNonlin (Pharsight Corporation, Version 5.2).
5-20% acetonitrile in 0.1 % formic acid. Supplementary Table S2 provides details of HPLC retention times and the m/z values that were monitored.
Supplementary Table S2. Detection of (−)-epicatechin metabolites. HPLC retention times and selected reaction monitoring ions used for the HPLC-MS analysis of (−)-epicatechin metabolites in plasma. […]
Structurally related (-)-epicatechin metabolites in humans: assessment using de novo chemically synthesized authentic standards. Free Radic Biol Med 52, 1403- […]
3 Borges, G. et al. Bioavailability of multiple components following acute ingestion of a polyphenol-rich juice drink. Mol Nutr Food Res 54 Suppl 2, S268-277, […]
4 Stalmach, A. et al. Absorption, metabolism, and excretion of green tea flavan-3-ols in humans with an ileostomy. Mol Nutr Food Res 54, 323-334,

[2] = Metabolite profiling and quantification in urine (HPLC-MS2 with on-line radioactivity detector); type: in vivo, humans; details: human, oral 207 μmol 14C-EC, mean ± SEM n=8; for Metabolite present in urine, collection period 4–8 h / Metabolite present in urine, collection period 8–12 h / Metabolite present in urine, collection period 12–24 h / Metabolite present in urine, collection period 24–48 h / Metabolite present in urine, collection period 0–4 h: – = not detected
Procedure: as §1, §2
HPLC-MS identifications of radiolabeled [2-14C](−)-epicatechin metabolites in urine Urine was analyzed with radioactivity and mass spectrometry (MS) detection using a 250 mm x 4.6 mm i.d. 5 µm Luna Phenyl-Hexyl column (Phenomenex, Macclesfield, UK) […]
formic acid. Metabolite identification was performed by 1) co-chromatography of metabolites with reference compounds and a comparison of their MS fragmentation patterns 2, 2) by comparing m/z fragmentation patterns with earlier in-house observed […]
patterns to databases of metabolites reported in earlier polyphenol feeding studies5-7.
Supplementary Table S2, which also provides information on the MSI MI (Metabolite Standards Initiative – Metabolites Identification) level, a confidence level for identification where level 1 stands for fully elucidated (i.e., by comparison with a standard) and level 2 for a well characterized, but not yet fully structurally elucidated 8

Row | Molecule | AUC0-24h [1] [µM·h] | Cmax [1] [nM] | T1/2 (elimination half-life) [1] [h] | Tmax [1] [h] | Metabolite present in urine, collection period 0–48 h [2] [μ mol] | Metabolite present in urine, collection period 4–8 h [2] [μ mol] | Metabolite present in urine, collection period 8–12 h [2] [μ mol] | Metabolite present in urine, collection period 12–24 h [2] [μ mol] | other results
1 | 5-(Hydroxyphenyl)-γ-hydroxyvaleric acid-sulfate | 1.49 ± 0.475 | 56 ± 9 | 7.6 ± 3.5 | 5.9 ± 0.6 | – | – | – | – | –
2 | 5-(Phenyl)-γ-valerolactone-O-sulfate-O-glucuronide | 1.02 ± 0.481 | 39 ± 9 | 6.4 ± 2.2 | 5.5 ± 1.1 | – | – | – | – | –
3 | O=C(O)CNC(=O)c1cccc(O)c1 [3′-Hydroxyhippuric acid] | – | – | – | – | 16.9 ± 5.8 | 1.6 ± 0.5 | 2.8 ± 0.7 | 7.0 ± 2.9 | Metabolite present in urine, collection period 24–48 h [2]: 5.5 ± 2.3 μ mol
4 | COc1cc([C@H]2Oc3cc(O)cc(O)c3C[C@H]2O)ccc1OS(=O)(=O)O [3′-O-Methyl-(−)-epicatechin-4′-sulfate] | 0.203 ± 0.069 | 53 ± 13 | 2.3 ± 0.6 | 0.9 ± 0.1 | 0.7 ± 0.2 | – | – | – | Metabolite present in urine, collection period 0–4 h [2]: 0.7 ± 0.2 μ mol
5 | COc1cc([C@H]2Oc3cc(O)cc(OS(=O)(=O)O)c3C[C@H]2O)ccc1O [3′-O-Methyl-(−)-epicatechin-5-sulfate, 3′-O-methyl-(−)-epicatechin-5-sulfate] | – | – | – | – | 9.6 ± 1.2 | 1.8 ± 0.3 | 0.4 ± 0.1 | 0.3 ± 0.2 | Cmax ([1]; male): 240 ± 24 nM; AUC(0-t) ([1]; male): 0.915 ± 0.178 µM·h; half-life ([1]; male): 1.6 ± 0.1 h; Tmax ([1]; male, read-out: Tmax): 0.9 ± 0.1 h; Metabolite present in urine, collection period 0–4 h [2]: 7.1 ± 0.9 μ mol
6 | COc1cc([C@H]2Oc3cc(O)cc(O[C@@H]4O[C@H](C(=O)O)[C@@H](O)[C@H](O)[C@H]4O)c3C[C@H]2O)ccc1O [3′-O-methyl(−)-epicatechin-5-O-β-D-glucuronide] | 0.025 ± 0.01 | 23 ± 5 | 1.3 ± 0.2 | 0.8 ± 0.2 | – | – | – | – | Relative amount (% of total) of individual SREM in plasma ([1]; human, 1 h post 14C-EC intake, Fig. 4A): < 3%
7 | COc1cc([C@H]2Oc3cc(O[C@@H]4O[C@H](C(=O)O)[C@@H](O)[C@H](O)[C@H]4O)cc(O)c3C[C@H]2O)ccc1O [3′-O-methyl(−)-epicatechin-7-O-β-D-glucuronide] | 0.077 ± 0.031 | 39 ± 5 | 1.3 ± 0.3 | 0.9 ± 0.1 | – | – | – | – | –
8 | O=C1CCC(Cc2ccc(O[C@@H]3O[C@H](C(=O)O)[C@@H](O)[C@H](O)[C@H]3O)c(O)c2)O1 (some centres unmarked) [5-(3′-Hydroxyphenyl)-γ-valerolactone-4′-O-glucuronide] | 1.33 ± 0.396 | 52 ± 9 | 4.4 ± 1.3 | 6.1 ± 0.8 | – | – | – | – | –
9 | O=C1CCC(Cc2ccc(O)c(O[C@@H]3O[C@H](C(=O)O)[C@@H](O)[C@H](O)[C@H]3O)c2)O1 (some centres unmarked) [5-(4′-Hydroxyphenyl)-γ-valerolactone-3′-O-glucuronide] | – | – | – | – | – | – | – | – | Cmax ([1]; male): 125 ± 30 nM; AUC(0-t) ([1]; male): 1.91 ± 0.787 µM·h; half-life ([1]; male): 3.1 ± 0.6 h; Tmax ([1]; male, read-out: Tmax): 6.8 ± 0.8 h
10 | O=C(O)CCC(O)Cc1cccc(OS(=O)(=O)O)c1 (centres unmarked) [5-(Phenyl)-4-hydroxyvaleric acid-3′-sulfate] | – | – | – | – | 2.9 ± 1.6 | 1.9 ± 1.0 | 0.3 ± 0.2 | 0.7 ± 0.7 | –
11 | O=C1CCC(Cc2cccc(OS(=O)(=O)O)c2)O1 (centres unmarked) [5-(Phenyl)-γ-valerolactone-3′-sulfate] | – | – | – | – | 4.7 ± 2.7 | 2.4 ± 1.1 | 1.2 ± 0.9 | 1.0 ± 0.8 | Metabolite present in urine, collection period 0–4 h [2]: 0.1 ± 0.1 μ mol
12 | O=C(O)[C@H]1O[C@@H](Oc2cc(O)c3c(c2)O[C@H](c2ccc(O)c(O)c2)[C@H](O)C3)[C@H](O)[C@@H](O)[C@@H]1O [(−)-Epicatechin-7-O-glucuronide, (−)-epicatechin-7-O-β-D-glucuronide] | 0.045 ± 0.014 | 22 ± 7 | 1.7 ± 0.3 | 0.8 ± 0.1 | – | – | – | – | –
13 | O=S(=O)(O)Oc1cc(O)c2c(c1)O[C@H](c1ccc(O)c(O)c1)[C@H](O)C2 [(−)-Epicatechin-7-sulfate] | 0.043 ± 0.016 | 19 ± 3 | 2.2 ± 0.4 | 1.1 ± 0.2 | – | – | – | – | –
14 | O=S(=O)(O)Oc1ccc([C@H]2Oc3cc(O)cc(O)c3C[C@H]2O)cc1O [(−)-epicatechin-4′-sulfate, reference compound] | – | – | – | – | – | – | – | – | Identification as human EC metabolite [1]: could not be identified by us
15 | O=C(O)[C@H]1O[C@@H](Oc2ccc([C@H]3Oc4cc(O)cc(O)c4C[C@H]3O)cc2O)[C@H](O)[C@@H](O)[C@@H]1O [(−)-epicatechin-4′-β-D-glucuronide, reference compound] | – | – | – | – | – | – | – | – | Identification as human EC metabolite [1]: could not be identified by us
16 | O=C(O)CNC(=O)c1ccccc1 [Hippuric acid] | – | – | – | – | 26.4 ± 7.1 | 7.2 ± 3.9 | 5.6 ± 2.6 | 7.1 ± 2.1 | Metabolite present in urine, collection period 0–4 h [2]: 0.6 ± 0.4 μ mol; Metabolite present in urine, collection period 24–48 h [2]: 5.9 ± 4.1 μ mol
17 | Hydroxyphenylacetic acid-sulfate | – | – | – | – | 2.9 ± 1.1 | 0.9 ± 0.5 | 0.8 ± 0.6 | 1.2 ± 0.4 | –
